Four molecules from US7700624B2, “3-aminocyclopentanecrboxamides as modulators of chemokine receptors” (Incyte Corporation, priority 2005, dated 2010) can be followed below.

This experiment deals with T1, CCR2 (Homo sapiens, UniProt P41597).
T1 construct: Peripheral Blood Mononuclear Cells (PBMCs) prepared from normal human whole blood via density gradient centrifugation; endogenous in cells; host or cells: human PBMCs from normal whole blood
T1 sequence (P41597 1-360 isoform P41597-2): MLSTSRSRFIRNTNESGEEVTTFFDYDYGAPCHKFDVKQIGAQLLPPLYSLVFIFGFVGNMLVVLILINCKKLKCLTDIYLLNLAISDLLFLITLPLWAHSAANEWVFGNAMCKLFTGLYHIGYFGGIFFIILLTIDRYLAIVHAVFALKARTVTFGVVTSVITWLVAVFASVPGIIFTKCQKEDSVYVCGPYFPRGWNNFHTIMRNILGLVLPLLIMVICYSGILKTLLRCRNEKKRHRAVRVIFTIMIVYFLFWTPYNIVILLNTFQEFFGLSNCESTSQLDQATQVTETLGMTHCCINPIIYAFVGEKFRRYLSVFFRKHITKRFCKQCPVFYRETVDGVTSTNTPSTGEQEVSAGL
Kind of experiment: CCR2 binding assay: 125I-labeled MCP-1 binding to human PBMCs. Conditions: inhibition of specific binding of 0.1 to 0.2 nM 125I-labeled MCP-1 to human PBMCs, 30 min at room temperature. The source says: The CCR2 antagonist activity of compounds of the invention can be reported as the inhibitor concentration required for 50% inhibition (IC50 values) of specific binding in receptor binding assays using ^125I-labeled MCP-1, as ligand, and Peripheral Blood Mononuclear Cells (PBMCs) prepared from normal human whole blood via density gradient centrifugation. Specific binding is preferably defined as the total binding (e.g., total cpm on filters) minus the non-specific binding. Non-specific binding is defined as the amount of cpm still detected in the presence of excess unlabeled competitor (e.g., MCP-1).
Human PBMCs are used to test compounds of the invention in a binding assay. For example, 200,000 to 500,000 cells are incubated with 0.1 to 0.2 nM ^125I-labeled MCP-1, with or without unlabeled competitor (10 nM MCP-1) or various concentrations of compounds to be tested. ^125I-labeled MCP-1, are prepared by suitable methods or purchased from commercial vendors (Perkin Elmer, Boston Mass.). The binding reactions are performed in 50 to 250 μL of a binding buffer consisting of […] pH 7.2, and 0.1% BSA (bovine serum albumin), for 30 min at room temperature. The binding reactions are terminated by harvesting the membranes by rapid filtration through glass fiber filters (Perkin Elmer) which is presoaked in 0.3% polyethyleneimine or Phosphate Buffered Saline (PBS). The filters were rinsed with approximately 600 μL of binding buffer containing 0.5 M NaCl or PBS, then dried, and the amount of bound radioactivity is determined by counting on a Gamma Counter (Perkin Elmer).

As usually defined, the IC50 is the concentration that gives 50% inhibition. High values mean lower potency, low ones higher potency. Turning to `CC1COCC(C)C1N[C@@H]1CC[C@@](C(=O)N2CCN(c3cc(C(F)(F)F)ccn3)CC2)(C(C)C)C1` (stereo partly drawn) [Example 21, N-[(1R,3S)-3-isopropyl-3-({4-[4-(trifluoromethyl)pyridin-2-yl]piperazin-1-yl}carbonyl)cyclopentyl]-35-dimethyltetrahydro-2H-pyran-4-amine], the IC50 turned out to be 10.1 nM.

The molecule `CCCNC(=O)CCC1CCCC1N[C@@H]1CC[C@@](C(=O)N2CCN(c3cc(C(F)(F)F)ccn3)CC2)(C(C)C)C1` (stereo partly drawn) [Example 17, 3-(2-{[(1R,3S)-3-isopropyl-3-({4-[4-(trifluoromethyl)pyridin-2-yl]piperazin-1-yl}carbonyl)cyclopentyl]amino}cyclopentyl)-N-propylpropanamide] gave an IC50 of 190 nM.

`CCn1cc(CN[C@@H]2CC[C@@](C(=O)N3CCN(c4cc(C(F)(F)F)ccn4)CC3)(C(C)C)C2)cn1` [Example 7, (1R,3S)-N-[(1-ethyl-1H-pyrazol-4-yl)methyl]-3-isopropyl-3-({4-[4-(trifluoromethyl)pyridin-2-yl]piperazin-1-yl}carbonyl)cyclopentanamine]: the IC50 came to 617 nM.

The molecule `CC(C)[C@]1(C(=O)N2CCN(c3cc(C(F)(F)F)ccn3)CC2)CC[C@@H](NCc2ccc(O)cc2)C1` [Example 27, 4-({[(1R,3S)-3-isopropyl-3-({4-[4-(trifluoromethyl)pyridin-2-yl]piperazin-1-yl}carbonyl)cyclopentyl]amino}methyl)phenol] came in with a 50% inhibitory concentration (IC50) of 470 nM.
